One series relates to DBA/2 mice. Kind of series: Anticonvulsant % Protect (DBA2 mouse model of anticonvulsant efficacy). In kind it is in vivo. To be noted: for responders at 30 mg/kg: Mus musculus. How it is done:
All procedures were carried out in compliance with the NIH Guide for the Care and Use of Laboratory Animals under a protocol approved by the Parke-Davis Animal Use Committee. Male DBA/2 mice, 3 to 4 weeks old were obtained from Jackson Laboratories, Bar Harbour, Me. Immediately before anticonvulsant testing, mice were placed upon a wire mesh, 4 inches square, suspended from a steel rod. The square was slowly inverted through 180° and mice observed for 30 seconds. Any mouse falling from the wire mesh was scored as ataxic (Coughenour L. L., McLean J. R., Parker R. B., “A new device for the rapid measurement of impaired motor function in mice,” Pharm. Biochem. Behav., 1977;6(3):351-3). Mice were placed into an enclosed acrylic plastic chamber (21 cm height, approximately 30 cm diameter) with a high-frequency speaker (4 cm diameter) in the center of the top lid. An audio signal generator (Protek model B-810) was used to produce a continuous sinusoidal tone that was swept linearly in frequency between 8 kHz and 16 kHz once each 10 msec. The average sound pressure level (SPL) during stimulation was approximately 100 dB at the floor of the chamber. Mice were placed within the chamber and allowed to acclimatize for one minute. DBA/2 mice in the vehicle-treated group responded to the sound stimulus (applied until tonic extension occurred, or for a maximum of 60 sec) with a characteristic seizure sequence consisting of wild running followed by clonic seizures, and later by tonic extension, and finally by respiratory arrest and death in 80% or more of the mice. In vehicle-treated mice, the entire sequence of seizures to respiratory arrest lasts approximately 15 to 20 seconds. The incidence of all the seizure phases in the drug-treated and vehicle-treated mice was recorded, and the occurrence of tonic seizures were used for calculating anticonvulsant ED50 values by probit analysis (Litchfield J. T., Wilcoxon F. “A simplified method for evaluating dose-effect experiments,” J. Pharmacol., 1949;96:99-113). Mice were used only once for testing at each dose point. Groups of DBA/2 mice (n=5-10 per dose) were tested for sound-induced seizure responses 2 hours (previously determined time of peak effect) after given drug orally. All drugs in the present study were dissolved in distilled water and given by oral gavage in a volume of 10 mL/kg of body weight. Compounds that are insoluble will be suspended in 1% carboxymethocellulose. Doses are expressed as weight of the active drug moiety.

[1] abbreviates: 30 mg/kg PO, 1 h, read-out: Anticonvulsant % Protect 1 h.
The mark [2] stands for this setting: 30 mg/kg PO, 2 h, read-out: Anticonvulsant % Protect 2 h.

We go through 8 compounds from patent publication US6642398B2, “Mono-and disubstituted 3-propyl gamma-aminobutyric acids” (Warner-Lambert Company, priority 1999, dated 2003).

Each structure is given as a SMILES string. Counter-ions that a name gives are not always drawn. Like-named read-outs stand apart in the source and are kept apart here.

Take `CCC(CC)CC(CN)CC(=O)O` (stereo not drawn): the “Anticonvulsant % Protect 2 hr” value in the series with DBA/2 mice (Table 1, 2 hr) is reported as 20%.

The melting point is the temperature of the solid-liquid transition. Take `CCCC(C(C)C)C(CN)CC(=O)O` (stereo not drawn) (as salt: HCl) [3-aminomethyl-4-isopropyl-heptanoic acid, 3-Aminomethyl-4-isopropyl-heptanoic acid]: the melting point is 160 to 170 °C.

Consider `CC(C)[C@@H](C)[C@H](CN)CC(=O)O` [(3R,4R)-3-Aminomethyl-4,5-dimethyl-hexanoic acid], for which the responders at 30 mg/kg in the series on DBA/2 mice (setting [1]) and with DBA/2 mice (setting [2]) was 100% each time.

Regarding `CC(C)[C@H](C)[C@H](CN)CC(=O)O` [(3R,4S)-3-Aminomethyl-4,5-dimethyl-hexanoic acid], the responders at 30 mg/kg with DBA/2 mice (setting [1]) is 20%; in the series with DBA/2 mice (setting [2]) it was 0%.

With `CC(C)[C@@H](C)[C@@H](CN)CC(=O)O` [(3S,4R)3-Aminomethyl 4,5-dimethyl-hexanoic acid], the responders at 30 mg/kg in the series with DBA/2 mice (setting [1]) and in the series on DBA/2 mice (setting [2]) was 20% each time.

`CC[C@@H](C)C[C@H](CN)CC(=O)O` [(3S,5R)-3-Aminomethyl-5-methyl-heptanoic acid]: the responders at 30 mg/kg in the series with DBA/2 mice (setting [1]) amounted to 80%.

`CC[C@H](C)C[C@H](CN)CC(=O)O` [(3S,5S)-3-Aminomethyl-5-methyl-heptanoic acid]: the responders at 30 mg/kg in the series on DBA/2 mice (setting [1]) and in the series on DBA/2 mice (setting [2]) was 0% throughout.

For the compound `CC(C)C[C@H](CN)CC(=O)O` [Pregabalin, (S)-3-(Aminomethyl)-5-methylhexanoic acid, reference compound], the “Anticonvulsant % Protect 2 h” value with DBA/2 mice (30 mg/kg PO, 2 h) is recorded as 100%.
